These results are taken from US9328099B2, “Cyanomethylpyrazole carboxamides as janus kinase inhibitors” (Merck Sharp & Dohme Corp., priority 2011, dated 2016).

One may read the IC50 as the midpoint of a concentration-inhibition curve.

Like-named read-outs stand apart in the source and are kept apart here.

For assay [1], the target named is JAK1 (Homo sapiens (Human), UniProt P23458). Briefly: Jak Biochemical HTRF Assay, JAK1. The settings on record: HTRF biochemical assay, GST-tagged catalytic domain; top concentration tested […]; read-out: JAK1 IC50. The text has this: (§1) Jak Biochemical HTRF Assay Protocol
(§2) Subsequent reagent additions employed an Agilent Bravo.

Assay [2] concerns the target JAK2 (Homo sapiens (Human), UniProt O60674). Briefly: Jak Biochemical HTRF Assay, JAK2.
Text: as §1, §2

Where [3] appears, read: HTRF biochemical assay, GST-tagged catalytic domain, top concentration tested […].

Chain of JAK2 (O60674 849-1124): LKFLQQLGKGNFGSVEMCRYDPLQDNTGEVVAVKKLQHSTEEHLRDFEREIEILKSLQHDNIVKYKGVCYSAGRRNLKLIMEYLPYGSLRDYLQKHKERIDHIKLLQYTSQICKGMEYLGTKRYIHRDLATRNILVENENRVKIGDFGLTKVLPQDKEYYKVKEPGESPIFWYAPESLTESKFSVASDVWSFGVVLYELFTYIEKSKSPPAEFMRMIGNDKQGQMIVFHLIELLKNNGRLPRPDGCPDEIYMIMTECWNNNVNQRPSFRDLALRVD
Chain of JAK1 (P23458 875-1153): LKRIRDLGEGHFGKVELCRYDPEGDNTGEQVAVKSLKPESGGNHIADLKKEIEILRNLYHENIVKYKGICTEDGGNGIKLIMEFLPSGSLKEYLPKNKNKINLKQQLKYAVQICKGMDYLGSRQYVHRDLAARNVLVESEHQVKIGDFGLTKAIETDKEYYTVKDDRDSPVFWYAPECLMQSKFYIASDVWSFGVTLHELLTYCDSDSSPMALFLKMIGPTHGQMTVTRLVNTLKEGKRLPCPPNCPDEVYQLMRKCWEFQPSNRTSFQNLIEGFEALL

Consider `C[C@H]1C[C@](CC#N)(n2cc(C(N)=O)c(Nc3ccccc3)n2)CCN1C(=O)OC(C)(C)C` (racemic) [Example 2-10], for which the figures for the IC50 in assay [1] and in assay [2] (setting [3]) were 2 nM and 21 nM, respectively.

Regarding `C[C@@H]1C[C@](CC#N)(n2cc(C(N)=O)c(Nc3ccccc3)n2)CCN1C(=O)OC(C)(C)C` (racemic) [Example 2-11, tert-butyl (2R,4R and 2S,4S)-4-[4-carbamoyl-3-(phenylamino)-1H-pyrazol-1-yl]-4-(cyanomethyl)-2-methylpiperidine-1-carboxylate], the IC50 in assay [1] was determined as 29 nM; in assay [2] (setting [3]), 614 nM.

As for `CC(C)(C)OC(=O)N1CC[C@](CC#N)(n2cc(C(N)=O)c(Nc3ccc(F)cc3)n2)[C@@H](F)C1` (racemic) [Example 6-3, tert-butyl (3S,4R and 3R,4S)-4-{4-carbamoyl-3-[(4-fluorophenyl)amino]-1H-pyrazol-1-yl}-4-(cyanomethyl)-3-fluoropiperidine-1-carboxylate], the IC50 in assay [1] is 1 nM; in assay [2] (setting [3]) it was 25 nM.

For the compound `CC(C)(C)OC(=O)N1CC[C@](CC#N)(n2cc(C(N)=O)c(Nc3ccc(F)cc3)n2)[C@H](F)C1` (racemic) [Example 6-4, tert-butyl (3S,4S and 3R,4R)-4-{4-carbamoyl-3-[(4-fluorophenyl)amino]-1H-pyrazol-1-yl}-4-(cyanomethyl)-3-fluoropiperidine-1-carboxylate], the IC50 in assay [1] came to 0.05 nM; in assay [2] (setting [3]), 0.2 nM.

Take `CC(C)(C)OC(=O)NC1CCC(CC#N)(n2cc(C(N)=O)c(Nc3ccccc3)n2)CC1` (single isomer, unassigned) [Example 2-19, (1s,3s or 1r,3r) tert-butyl {4-[4-carbamoyl-3-(phenylamino)-1H-pyrazol-1-yl]-4-(cyanomethyl)cyclohexyl}carbamate]: the figures for the IC50 in assay [1] and in assay [2] (setting [3]) were 12 nM and 267 nM, respectively.

For `CC(C)(C)OC(=O)N1CC[C@@](CC#N)(n2cc(C(N)=O)c(Nc3ccc(F)cc3)n2)[C@H](F)C1` (single isomer, unassigned) [Example 47-3, tert-butyl (3R,4S or 3S,4R)-4-{4-carbamoyl-3-[(4-fluorophenyl)amino]-1H-pyrazol-1-yl}-4-(cyanomethyl)-3-fluoropiperidine-1-carboxylate], the figures for the IC50 in assay [1] and in assay [2] (setting [3]) were 2 nM and 32 nM, respectively.

Take `CC(C)(C)OC(=O)N1CC[C@](CC#N)(n2cc(C(N)=O)c(Nc3ccc(F)cc3)n2)[C@@H](F)C1` (single isomer, unassigned) [Example 47-4, tert-butyl (3S,4R or 3R,4S)-4-{4-carbamoyl-3-[(4-fluorophenyl)amino]-1H-pyrazol-1-yl}-4-(cyanomethyl)-3-fluoropiperidine-1-carboxylate]: the IC50 in assay [1] stood at 2 nM; in assay [2] (setting [3]) it was 83 nM.

With `CNC(=O)c1cn(C2(CC#N)CCN(C(=O)OC(C)(C)C)CC2)nc1Nc1ccccc1` [Example 1, tert-Butyl 4-(cyanomethyl)-4-[4-(methylcarbamoyl)-3-(phenylamino)-1H-pyrazol-1-yl]piperidine-1-carboxylate], the IC50 in assay [1] stood at 67 nM; in assay [2] (setting [3]), 1480 nM.

As to `CC(C)(C)OC(=O)N1CCC(CC#N)(n2cc(C(N)=O)c(Nc3ccccc3)n2)CC1` [Example 2-1, tert-Butyl 4-[4-carbamoyl-3-(phenylamino)-1H-pyrazol-1-yl]-4-(cyanomethyl)piperidine-1-carboxylate], the results for the IC50 in assay [1] and in assay [2] (setting [3]) were 1 nM and 27 nM, respectively.

For the compound `CC(C)(C)OC(=O)N1CCC(CC#N)(n2cc(C(N)=O)c(Nc3ccc(Br)cc3)n2)CC1` [Example 2-2, tert-butyl 4-{3-[(4-bromophenyl)amino]-4-carbamoyl-1H-pyrazol-1-yl}-4-(cyanomethyl)piperidine-1-carboxylate], the IC50 in assay [1] was 0.5 nM; in assay [2] (setting [3]) it was 23 nM.

With `CC(C)(C)OC(=O)N1CC(CC#N)(n2cc(C(N)=O)c(Nc3ccccc3)n2)C1` [Example 2-3, tert-butyl 3-[4-carbamoyl-3-(phenylamino)-1H-pyrazol-1-yl]-3-(cyanomethyl)azetidine-1-carboxylate], the IC50 in assay [1] was determined as 8 nM; in assay [2] (setting [3]), 57 nM.

For `CC(C)(C)OC(=O)N1CCC(CC#N)(n2cc(C(N)=O)c(Nc3cccc(Cn4nnc5ccccc54)c3)n2)CC1` [Example 2-4, tert-butyl 4-(3-{[3-(1H-benzotriazol-1-ylmethyl)phenyl]amino}-4-carbamoyl-1H-pyrazol-1-yl)-4-(cyanomethyl)piperidine-1-carboxylate], the IC50 stood at 0.5 nM in assay [1] and 18 nM in assay [2] (setting [3]).

As to `CC(C)(C)OC(=O)N1CC(CC#N)(n2cc(C(N)=O)c(Nc3ccc(S(C)(=O)=O)cc3)n2)C1` [Example 2-5, tert-butyl 3-(4-carbamoyl-3-{[4-(methylsulfonyl)phenyl]amino}-1H-pyrazol-1-yl)-3-(cyanomethyl)azetidine-1-carboxylate], the results for the IC50 in assay [1] and in assay [2] (setting [3]) were 0.6 nM and 7 nM, respectively.

For the compound `CC(C)(C)OC(=O)N1CCC(CC#N)(n2cc(C(N)=O)c(Nc3ccc(C(=O)N4CCS(=O)(=O)CC4)cc3)n2)CC1` [Example 2-6, tert-butyl 4-[4-carbamoyl-3-({4-[(1,1-dioxidothiomorpholin-4-yl)carbonyl]phenyl}amino)-1H-pyrazol-1-yl]-4-(cyanomethyl)piperidine-1-carboxylate], the IC50 in assay [1] turned out to be 0.5 nM; in assay [2] (setting [3]) it was 1 nM.

As to `CC(C)(C)OC(=O)N1CCC(CC#N)(n2cc(C(N)=O)c(Nc3ccncc3)n2)CC1` [Example 2-7, tert-butyl 4-[4-carbamoyl-3-(pyridin-4-ylamino)-1H-pyrazol-1-yl]-4-(cyanomethyl)piperidine-1-carboxylate], the values for the IC50 in assay [1] and in assay [2] (setting [3]) were 0.3 nM and 10 nM, respectively.

With `CC(C)(C)OC(=O)N1CC(CC#N)(n2cc(C(N)=O)c(Nc3ccc(C(=O)N4CCS(=O)(=O)CC4)cc3)n2)C1` [Example 2-8, tert-butyl 3-[4-carbamoyl-3-({4-[(1,1-dioxidothiomorpholin-4-yl)carbonyl]phenyl}amino)-1H-pyrazol-1-yl]-3-(cyanomethyl)azetidine-1-carboxylate], the IC50 came to 2 nM in assay [1] and 5 nM in assay [2] (setting [3]).

As for `CCS(=O)(=O)N1CC(CC#N)(n2cc(C(N)=O)c(Nc3ccccc3)n2)C1` [Example 2-12, 1-[3-(cyanomethyl)-1-(ethylsulfonyl)azetidin-3-yl]-3-(phenylamino)-1H-pyrazole-4-carboxamide], the IC50 in assay [1] is 115 nM; in assay [2] (setting [3]), 404 nM.

For `CCS(=O)(=O)N1CC(CC#N)(n2cc(C(N)=O)c(Nc3ccc(C(=O)N4CCS(=O)(=O)CC4)cc3)n2)C1` [Example 2-13, 1-[3-(cyanomethyl)-1-(ethylsulfonyl)azetidin-3-yl]-3-({4-[(1,1-dioxidothiomorpholin-4-yl)carbonyl]phenyl}amino)-1H-pyrazole-4-carboxamide], the results for the IC50 in assay [1] and in assay [2] (setting [3]) were 27 nM and 38 nM, respectively.

In turn, `N#CCC1(n2cc(C(N)=O)c(Nc3ccc(F)cc3)n2)CCN(C(=O)OC2CCOC2)CC1` (stereo not drawn) [Example 30-46, tetrahydrofuran-3-yl 4-{4-carbamoyl-3-[(4-fluorophenyl)amino]-1H-pyrazol-1-yl}-4-(cyanomethyl)piperidine-1-carboxylate] had an IC50 in assay [2] (setting [3]) of 37 nM.

In assay [2] (setting [3]), `N#CCC1(n2cc(C(N)=O)c(Nc3ccc(F)cc3)n2)CCC(=O)CC1` [Example 40-1A, 1-(1-(Cyanomethyl)-4-oxocyclohexyl)-3-((4-fluorophenyl)amino)-1H-pyrazole-4-carboxamide] had an IC50 of 39 nM.

In the case of `N#CCC1(n2cc(C(N)=O)c(Nc3ccc(S(=O)(=O)C(F)F)cc3)n2)CCC(Nc2ccc(O)cc2)CC1` (stereo not drawn) [Example 40-7, Cis or trans 1-{1-(cyanomethyl)-4-[(4-hydroxyphenyl)amino]cyclohexyl}-3-({4-[(difluoromethyl)sulfonyl]phenyl}amino)-1H-pyrazole-4-carboxamide], in assay [2], inhibition was half-maximal at 36 nM (IC50).

In assay [2], `N#CCC1(n2cc(C(N)=O)c(Nc3ccc(S(=O)(=O)C(F)F)cc3)n2)CCC(Nc2cccnc2)CC1` (stereo not drawn) [Example 40-9, Cis or trans 1-[1-(cyanomethyl)-4-(pyridin-3-ylamino)cyclohexyl]-3-({4-[(difluoromethyl)sulfonyl]phenyl}amino)-1H-pyrazole-4-carboxamide] registered an IC50 of 352 nM.

The compound `N#CCC1(n2cc(C(N)=O)c(Nc3ccc(S(=O)(=O)C(F)F)cc3)n2)CCC(Nc2cccc(O)c2)CC1` (stereo not drawn) [Example 40-14, Cis or trans 1-{1-(cyanomethyl)-4-[(3-hydroxyphenyl)amino]cyclohexyl}-3-({4-[(difluoromethyl)sulfonyl]phenyl}amino)-1H-pyrazole-4-carboxamide] gave an IC50 in assay [2] of 65 nM.

On to `N#CCC1(n2cc(C(N)=O)c(Nc3ccc(S(=O)(=O)C(F)F)cc3)n2)CCC(Nc2ccccc2O)CC1` (stereo not drawn) [Example 40-32, Cis or trans 1-{1-(cyanomethyl)-4-[(2-hydroxyphenyl)amino]cyclohexyl}-3-({4-[(difluoromethyl)sulfonyl]phenyl}amino)-1H-pyrazole-4-carboxamide], for which the IC50 in assay [2] turned out to be 177 nM.

`N#CCC1(n2cc(C(N)=O)c(Nc3ccnc(F)c3)n2)CCC(NC2CCOCC2)CC1` (stereo not drawn) [Example 40-38, Cis or trans 1-[1-(cyanomethyl)-4-(tetrahydro-2H-pyran-4-ylamino)cyclohexyl]-3-[(2-fluoropyridin-4-yl)amino]-1H-pyrazole-4-carboxamide]: half-maximal inhibition in assay [2] (IC50) was put at 103 nM.

For the compound `N#CCC1(n2cc(C(N)=O)c(Nc3ccc(F)cc3)n2)CCC(NC2CCOCC2)CC1` (stereo not drawn) [Example 40-65, Cis or trans 1-[1-(cyanomethyl)-4-(tetrahydro-2H-pyran-4-ylamino)cyclohexyl]-3-[(4-fluorophenyl)amino]-1H-pyrazole-4-carboxamide], inhibition in assay [2] was half-maximal at 129 nM (IC50).

For `N#CC[C@]1(n2cc(C(N)=O)c(Nc3ccccc3)n2)CC[C@@H](C(=O)NCC(F)(F)F)CC1` [Example 45-1, cis or trans 1-{1-(cyanomethyl)-4-[(2,2,2-trifluoroethyl)carbamoyl]cyclohexyl}-3-(phenylamino)-1H-pyrazole-4-carboxamide], in assay [2], the IC50 is 301 nM.
